{
  "source": "patent US12715946B2",
  "about": "“Composition” (JOSHO GAKUEN EDUCATIONAL FOUNDATION, priority 2020, dated 2026)",
  "system": "Chinese hamster ovary cells (CHO cells)",
  "assay": "Evaluation of cellular uptake of FITC-labeled model drugs (flow cytometry, MFI)",
  "assay_type": "cell-based",
  "settings": "5 μg/mL, 2 hours incubation, n=3",
  "procedure": "Cellular uptake evaluation of the model drugs described above was conducted using Examples 1 to 3 (polymeric compounds of Manufacturing Examples 1 to 3) or Comparative Examples 1 to 2 (compounds of Manufacturing Examples 4 and 5). A suspension of Ham's F-12 medium (manufactured by Fujifilm Wako Chemical Corporation) containing Chinese hamster ovary cells (CHO cells, 2×10^5 cells/mL) was prepared and seeded at 500μL/well to each well of a 24-well plate. The cells were incubated in a CO2 gas incubator (37° C., 5% CO2) for 24 hours.\nThen, the compositions of the Examples and Comparative Examples (Table 1-6) were prepared by mixing 250 μL/well of Ham's F-12 medium containing the above model drugs and 250 μL/well of Ham's F-12 medium containing the manufacturing examples.\nThen, the supernatant was removed from each well of the pre-cultured 24-well plate using an aspirator and the cells were washed twice with 500 μL/well of phosphate-buffered saline. Then, the aforementioned compositions were gently added to the wells and incubated in a carbon dioxide incubator for 2 hours. The number of experiments was n=3.\nAfter 2 hours, the supernatants of medium were removed, and the cells were washed twice with 500 μL/well of phosphate-buffered saline. Then, 100 μL/well of trypsin-EDTA solution (0.25% trypsin, 1 mmol/L EDTA solution, Life Technologies) was added, and cultured CHO cells were detached from 24-well plates.\nThen, 400 μL/well of trypan blue solution (Fujifilm Wako Chemical Corporation) was added to suspend the cells, and the cells were collected in microtubes. The collected cell suspensions were passed through a cell strainer, and the mean fluorescence intensity (MFI) was measured by flow cytometry. The cells without the polymeric compound (only the model drug was added) were used as controls.\nWhile only the model drug introduced into the cells emits fluorescence. MFI represents the arithmetic average of the fluorescence intensity per cell, and a larger value of MFI indicates a more efficient intracellular uptake of the model drug.",
  "data": [
    {"smiles": "O=C([O-])CCCCCCCNC(=O)c1ccccc1O.[Na+]", "note": "[Comparative Example 2, Sodium salcaprozate]", "values": [
      {"measurement": "MFI ± S.D.", "setting": "Model drug: FITC-CTB (Molecular weight 11,000)", "result": "3.7 ± 0.1"},
      {"measurement": "MFI ± S.D.", "setting": "Model drug: FITC-INS (Molecular weight 5,800)", "result": "19.7 ± 0.2"},
      {"measurement": "MFI ± S.D.", "setting": "Model drug: FITC-IgG (Molecular weight 150,000)", "result": "3.2 ± 0.1"},
      {"measurement": "MFI ± S.D.", "setting": "Model drug: FITC-IgM (Molecular weight 900,000)", "result": "3.1 ± 0.2"},
      {"measurement": "MFI ± S.D.", "setting": "Model drug: FITC-OVA (Molecular weight 45,000)", "result": "3.6 ± 0.4"},
      {"measurement": "MFI ± S.D.", "setting": "Model drug: FITC-Tf (Molecular weight 77,000)", "result": "6.7 ± 0.2"}
    ]}
  ]
}
